In brackets after ≈: the same amount, converted by molar mass. Where two headings read alike, the source gives them in different places.

This note sets out measurements from patent US3980779A, “3-Amino-1,2,4-benzotriazine-1,4-di-N-oxide compositions and method of using same” (Bayer Aktiengesellschaft, priority 1972, dated 1976).

In one test the test system is Klebsiella 63. Put plainly: MIC plate test. It counts as cell-based. Particulars: nutrient medium, 37°C, 24 hours. From the text:
(§1) The antimicrobial activity of these compounds can be conveniently observe in in vitro and in vivo models. For example, their minimum inhibitory concentration (MIC) can be determined in the plate test on a complete nutrient base of the following composition: 10 g of proteose-peptone, 10 g of veal infusion, 2 g of dextrose, 3 g of sodium chloride, 2 g of disodium phosphate, 1 g of sodium acetate, 0.01 g of adenine sulfate, 0.01 g of guanine hydrochloride, 0.01 g of uracil, 0.01 g of xantine, 12 g of agar-agar and 1 liter of water. With an incubation temperature of 37°C and an incubation time of 24 hours, the following typical values can be observed: […]

The subject of the next test is Klebsiella 8085. Put plainly: MIC plate test. It counts as cell-based. The following applies: nutrient medium, 37°C, 24 hours.
Excerpt: as §1

For the next test, the system named is Proteus vulgaris 1017. Put plainly: MIC plate test. The test is classed as cell-based. The following applies: nutrient medium, 37°C, 24 hours.
Excerpt: as §1

Test [1] relates to Pseudomonas aeruginosa BONN. Put plainly: MIC plate test. The test is classed as cell-based. Particulars: nutrient medium, 37°C, 24 hours.
Excerpt: as §1

The test system of a further test is Pseudomonas aeruginosa W. The test is described as follows: MIC plate test. It counts as cell-based. Particulars: nutrient medium, 37°C, 24 hours.
Excerpt: as §1

For test [2], the system named is Staphylococcus aureus 133. Put plainly: MIC plate test. It counts as cell-based. Particulars: nutrient medium, 37°C, 24 hours.
Excerpt: as §1

For a further test, the system named is Streptococcus pyogenes W. The test is described as follows: MIC plate test. The following applies: nutrient medium, 37°C, 24 hours. The test is classed as cell-based.
Excerpt: as §1

Another test deals with E. coli A 261. Put plainly: MIC plate test. The test is classed as cell-based, Escherichia coli. Particulars: 37°C, 24 hours.
Excerpt: as §1

The next test concerns E. coli C 165. Put plainly: MIC plate test. The test is classed as cell-based, Escherichia coli. The following applies: 37°C, 24 hours.
Excerpt: as §1

A further test relates to E.coli C 165. Put plainly: in vivo infection of white mice, subcutaneous administration. Particulars: 15 minutes before intraperitoneal infection, 24 hours later. From the text:
(§2) The above in vitro data are confirmed in in vivo infections.

The subject of test [3] is Staphylococcus aureus 133. The test is described as above. The following applies: 15 minutes before intraperitoneal infection, 24 hours later.
Excerpt: as §2

Test [4] in a line: growth promoting activity and fodder utilisation in chicken. The following applies: 10 PPM in fodder. It counts as in vivo. The procedure:
The growth promoting activity of the new compounds and their effectiveness in improving the fodder utilisation may be illustrated by the following data:
Test animals : chicken (kept in cages, with complete fodder and water ad libitum)
The active ingredient is mixed in a finely divided form to the fodder according to customary methods. The tests were performed with 12 animals in each tested group.
Active ingredient: compound of Example 4
Concentration of the active ingredient in the fodder: […]

As usually defined, the MIC is the lowest concentration found to suppress growth. For orientation: ED50 means the dose that gives a 50% effect, or the effect in half of the subjects. With “isomeric mixture of 6-methoxy and 7-methoxy-3-amino-1,2,4-benzotriazine-1,4-di-N-oxide [Compound C]”, the MIC turned out to be 2 µg/mL with Klebsiella 63; 1 µg/mL in the test with Klebsiella 8085; 1 µg/mL in the test on Proteus vulgaris 1017; 32 µg/mL in [1]; 64 µg/mL against Pseudomonas aeruginosa W; 4 µg/mL in test [2]. In addition, the MIC in the test with Streptococcus pyogenes W worked out at 4 µg/mL; against E. coli A 261 (nutrient medium) it was 2 µg/mL; against E. coli C 165 (nutrient medium), 2 µg/mL. Further, the median effective dose (ED50) is recorded as 25 mg/kg with E.coli C 165 and 40 mg/kg in [3]. For the same molecule, the “Consumption of fodder in relation to the control group” value came to 100% in test [4] (week 0); 85.7% in test [4] (week 1); 90.4% in [4] (week 2); 93.4% in test [4] (week 3); 98.5% in test [4] (week 4); 101.1% in test [4] (week 5). The “Consumption of fodder in relation to the control group” value in test [4] (week 6) was found to be 92.2%. Also, the “Weight increase in relation to the control group” value came out at 100% in [4] (week 0); 102.8% in test [4] (week 1); 109.0% in test [4] (week 2); 105.8% in test [4] (week 3); 110.4% in [4] (week 4); 106.4% in test [4] (week 5). The “Weight increase in relation to the control group” value in [4] (week 6) worked out at 106.0%. Besides, the “weight increase (all animals)” value is 75 gram in test [4] (week 0); 148.4 gram in test [4] (week 1); 276.7 gram in test [4] (week 2); 475.0 gram in test [4] (week 3); 761.8 gram in [4] (week 4); 1019.1 gram in test [4] (week 5). In test [4] (week 6), the “weight increase (all animals)” value amounted to 1296.4 gram.
Take `Nc1n[n+]([O-])c2ccccc2[n+]1[O-]` [Compound A, 3-amino-1,2,4-benzotriazine-1,4-di-N-oxide]: the minimum inhibitory concentration (MIC) with Klebsiella 63 (read-out: MIC) was 4 µg/mL (≈ 22.5 µM); in the test with Klebsiella 8085 (read-out: MIC), 2 µg/mL (≈ 11.2 µM); in the test with Proteus vulgaris 1017 (read-out: MIC), 2 µg/mL (≈ 11.2 µM); in [1] (read-out: MIC) it was 8 µg/mL (≈ 44.9 µM); in the test with Pseudomonas aeruginosa W (read-out: MIC), 64 µg/mL (≈ 359 µM); in test [2] (read-out: MIC), 16 µg/mL (≈ 89.8 µM). Moreover, the MIC in the test on Streptococcus pyogenes W (read-out: MIC) was 32 µg/mL (≈ 180 µM); in the test with E. coli A 261 (Escherichia coli, A261, nutrient medium, read-out: MIC), 4 µg/mL (≈ 22.5 µM); with E. coli C 165 (Escherichia coli, C165, nutrient medium, read-out: MIC) it was 4 µg/mL (≈ 22.5 µM). Besides, the ED50 in the test with E.coli C 165 (Escherichia coli, C165, sc, read-out: ED50) turned out to be 20 mg/kg.
For “isomeric mixture of 6-chloro- and 7-chloro-3-amino-1,2,4-benzotriazine-1,4-di-N-oxide [Compound B]”, the MIC came out at 8 µg/mL against Klebsiella 63; 1 µg/mL against Klebsiella 8085; 4 µg/mL in the test with Proteus vulgaris 1017; 128 µg/mL in [1]; 128 µg/mL against Pseudomonas aeruginosa W; 8 µg/mL in test [2]. In addition, the MIC in the test with Streptococcus pyogenes W, in the test with E. coli A 261 (nutrient medium) and in the test with E. coli C 165 (nutrient medium) was 8 µg/mL throughout. In test [3], this molecule had an ED50 of 250 mg/kg.
